Measurements as given in PMC10206162 (Nature Communications, 2023).
Read-outs that look alike come from different tables or passages of the source. Where no end group is shown, it is not given here.

Assays:
mouse NaV1.7 = mouse NaV1.7 (Mus musculus, UniProt Q62205); test: cell-based; type: cell-based
Method: HEK293 cells stably expressing the α-subunit of mouse Nav1.7, human NaV1.6 or Nav1.7 plus the β1 subunit (SB Drug Discovery, Glasgow, United Kingdom) and Chinese Hamster Ovary (CHO) cells stably expressing human NaV1.8 plus the β3 subunit in a tetracycline-inducible system (ChanTest, Cleveland, OH, United States), were cultured were maintained on MEM supplemented with 10% heat-inactivated FBS, 2 mM L-glutamine in an incubator at 37 °C with 5% CO2 and passaged every 3–4 days (at 70–80% confluency) using TrypLE Express (Thermo Fisher Scientific).
Whole-cell patch-clamp experiments were performed using a QPatch16X automated electrophysiology platform (Sophion Bioscience, Ballerup, Denmark). The extracellular solution (ECS) contained 145 mM NaCl (replaced with 70 mM choline chloride for NaV1.7), 4 mM KCl, 2 mM CaCl2, 1 mM MgCl2, 10 mM HEPES, and 10 mM glucose (pH 7.4; osmolarity, 305 mOsm). The intracellular solution (ICS) contained 140 mM CsF, 1 mM/5 mM EGTA/CsOH, 10 mM HEPES, and 10 mM NaCl (pH 7.3) with CsOH (osmolarity, 320 mOsm). Peptides were diluted in ECS with 0.1% BSA.
Concentration-response experiments were performed using a holding potential of −90 mV and a 50-ms pulse to −20 mV ( + 10 mV for NaV1.8) every 20 s (0.05 Hz). […] Conductance-voltage curves were obtained by calculating the conductance (G) at each voltage (V) using the equation G = I/(V – Vrev), where Vrev is the reversal potential, and they were fitted with the following single or double Boltzmann equations: I = Imax/{1 + exp[(V50 − Vm)/k]} or I = {Imax(a)/[1+exp({V50 (a) – Vm}/k(a))]} + {Imax(b)/[1 + exp({V50(b) – Vm}/k(b))]}, where Imax is the maximal current after normalisation to the driving force, V50 is the half-activation potential, Vm is the membrane potential, and k is the slope factor. For statistical comparison of G-V curves, a two-tailed unpaired t-test was used.

human NaV1.7 = human NaV1.7 (Homo sapiens, UniProt Q15858); test: cell-based
Chain of human NaV1.7 (Q07699 19-218): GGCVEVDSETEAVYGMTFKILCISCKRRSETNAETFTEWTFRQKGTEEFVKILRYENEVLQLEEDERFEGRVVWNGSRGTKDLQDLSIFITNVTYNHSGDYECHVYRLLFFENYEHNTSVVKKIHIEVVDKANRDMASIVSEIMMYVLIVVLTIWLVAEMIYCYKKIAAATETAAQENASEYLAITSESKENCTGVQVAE
Chain of human NaV1.7 (Q15858 whole entry): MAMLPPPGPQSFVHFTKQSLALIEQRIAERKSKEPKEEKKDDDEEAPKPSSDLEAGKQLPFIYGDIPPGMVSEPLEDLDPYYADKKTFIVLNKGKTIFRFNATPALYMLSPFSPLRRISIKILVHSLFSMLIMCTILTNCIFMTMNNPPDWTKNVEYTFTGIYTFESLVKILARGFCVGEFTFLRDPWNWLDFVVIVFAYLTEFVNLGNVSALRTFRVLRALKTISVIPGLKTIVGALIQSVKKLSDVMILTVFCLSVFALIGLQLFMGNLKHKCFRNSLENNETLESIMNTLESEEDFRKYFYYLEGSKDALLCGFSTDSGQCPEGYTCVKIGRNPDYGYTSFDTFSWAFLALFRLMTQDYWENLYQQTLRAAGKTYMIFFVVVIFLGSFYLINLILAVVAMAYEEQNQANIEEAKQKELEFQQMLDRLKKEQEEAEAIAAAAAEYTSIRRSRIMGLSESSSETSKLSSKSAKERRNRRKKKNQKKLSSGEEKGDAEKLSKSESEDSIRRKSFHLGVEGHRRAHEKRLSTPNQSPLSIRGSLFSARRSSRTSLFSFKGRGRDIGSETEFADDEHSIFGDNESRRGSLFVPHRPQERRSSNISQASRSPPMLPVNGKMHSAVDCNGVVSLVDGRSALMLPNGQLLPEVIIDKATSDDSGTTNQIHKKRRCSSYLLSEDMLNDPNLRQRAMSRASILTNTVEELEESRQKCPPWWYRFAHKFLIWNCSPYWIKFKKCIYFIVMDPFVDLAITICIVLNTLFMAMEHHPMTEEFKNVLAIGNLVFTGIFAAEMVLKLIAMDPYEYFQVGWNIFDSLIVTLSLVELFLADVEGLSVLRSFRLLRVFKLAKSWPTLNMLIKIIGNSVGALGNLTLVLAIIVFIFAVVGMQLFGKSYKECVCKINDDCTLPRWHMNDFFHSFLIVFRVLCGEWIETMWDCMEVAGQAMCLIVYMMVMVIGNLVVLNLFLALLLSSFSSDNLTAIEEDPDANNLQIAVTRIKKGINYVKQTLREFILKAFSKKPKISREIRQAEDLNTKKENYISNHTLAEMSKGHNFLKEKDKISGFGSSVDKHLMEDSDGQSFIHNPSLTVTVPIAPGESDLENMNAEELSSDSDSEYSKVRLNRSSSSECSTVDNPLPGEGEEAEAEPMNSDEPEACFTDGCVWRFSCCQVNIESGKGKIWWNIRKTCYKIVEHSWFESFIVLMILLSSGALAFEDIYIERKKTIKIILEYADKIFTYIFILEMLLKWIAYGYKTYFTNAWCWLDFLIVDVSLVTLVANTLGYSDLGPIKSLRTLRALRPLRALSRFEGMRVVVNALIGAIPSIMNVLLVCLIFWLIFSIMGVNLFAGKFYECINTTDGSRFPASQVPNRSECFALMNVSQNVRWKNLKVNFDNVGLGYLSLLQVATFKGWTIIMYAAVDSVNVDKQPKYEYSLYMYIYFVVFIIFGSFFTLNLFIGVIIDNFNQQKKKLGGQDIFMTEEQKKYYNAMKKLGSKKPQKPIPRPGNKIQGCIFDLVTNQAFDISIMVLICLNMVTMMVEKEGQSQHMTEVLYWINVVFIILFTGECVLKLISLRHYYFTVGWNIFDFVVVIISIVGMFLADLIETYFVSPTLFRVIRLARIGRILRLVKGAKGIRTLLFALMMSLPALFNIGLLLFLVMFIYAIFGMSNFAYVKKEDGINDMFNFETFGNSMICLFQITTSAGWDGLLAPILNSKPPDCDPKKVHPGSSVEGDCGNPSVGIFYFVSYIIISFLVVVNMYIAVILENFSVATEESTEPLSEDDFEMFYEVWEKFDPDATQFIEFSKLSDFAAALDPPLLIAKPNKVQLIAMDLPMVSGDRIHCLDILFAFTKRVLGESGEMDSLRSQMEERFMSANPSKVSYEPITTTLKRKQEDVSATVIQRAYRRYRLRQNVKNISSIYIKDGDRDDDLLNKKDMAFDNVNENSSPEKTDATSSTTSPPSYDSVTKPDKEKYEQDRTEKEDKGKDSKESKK

human NaV1.6 = human NaV1.6 (Homo sapiens, UniProt Q9UQD0); test: cell-based
human NaV1.8 = human NaV1.8 (Homo sapiens, UniProt Q9Y5Y9); test: cell-based; conditions: EC50 (potency), hNaV1.8
human NaV1.9 = human NaV1.9 (Homo sapiens, UniProt Q9UI33); type: cell-based

Chain of mouse NaV1.7 (Q62205 whole entry): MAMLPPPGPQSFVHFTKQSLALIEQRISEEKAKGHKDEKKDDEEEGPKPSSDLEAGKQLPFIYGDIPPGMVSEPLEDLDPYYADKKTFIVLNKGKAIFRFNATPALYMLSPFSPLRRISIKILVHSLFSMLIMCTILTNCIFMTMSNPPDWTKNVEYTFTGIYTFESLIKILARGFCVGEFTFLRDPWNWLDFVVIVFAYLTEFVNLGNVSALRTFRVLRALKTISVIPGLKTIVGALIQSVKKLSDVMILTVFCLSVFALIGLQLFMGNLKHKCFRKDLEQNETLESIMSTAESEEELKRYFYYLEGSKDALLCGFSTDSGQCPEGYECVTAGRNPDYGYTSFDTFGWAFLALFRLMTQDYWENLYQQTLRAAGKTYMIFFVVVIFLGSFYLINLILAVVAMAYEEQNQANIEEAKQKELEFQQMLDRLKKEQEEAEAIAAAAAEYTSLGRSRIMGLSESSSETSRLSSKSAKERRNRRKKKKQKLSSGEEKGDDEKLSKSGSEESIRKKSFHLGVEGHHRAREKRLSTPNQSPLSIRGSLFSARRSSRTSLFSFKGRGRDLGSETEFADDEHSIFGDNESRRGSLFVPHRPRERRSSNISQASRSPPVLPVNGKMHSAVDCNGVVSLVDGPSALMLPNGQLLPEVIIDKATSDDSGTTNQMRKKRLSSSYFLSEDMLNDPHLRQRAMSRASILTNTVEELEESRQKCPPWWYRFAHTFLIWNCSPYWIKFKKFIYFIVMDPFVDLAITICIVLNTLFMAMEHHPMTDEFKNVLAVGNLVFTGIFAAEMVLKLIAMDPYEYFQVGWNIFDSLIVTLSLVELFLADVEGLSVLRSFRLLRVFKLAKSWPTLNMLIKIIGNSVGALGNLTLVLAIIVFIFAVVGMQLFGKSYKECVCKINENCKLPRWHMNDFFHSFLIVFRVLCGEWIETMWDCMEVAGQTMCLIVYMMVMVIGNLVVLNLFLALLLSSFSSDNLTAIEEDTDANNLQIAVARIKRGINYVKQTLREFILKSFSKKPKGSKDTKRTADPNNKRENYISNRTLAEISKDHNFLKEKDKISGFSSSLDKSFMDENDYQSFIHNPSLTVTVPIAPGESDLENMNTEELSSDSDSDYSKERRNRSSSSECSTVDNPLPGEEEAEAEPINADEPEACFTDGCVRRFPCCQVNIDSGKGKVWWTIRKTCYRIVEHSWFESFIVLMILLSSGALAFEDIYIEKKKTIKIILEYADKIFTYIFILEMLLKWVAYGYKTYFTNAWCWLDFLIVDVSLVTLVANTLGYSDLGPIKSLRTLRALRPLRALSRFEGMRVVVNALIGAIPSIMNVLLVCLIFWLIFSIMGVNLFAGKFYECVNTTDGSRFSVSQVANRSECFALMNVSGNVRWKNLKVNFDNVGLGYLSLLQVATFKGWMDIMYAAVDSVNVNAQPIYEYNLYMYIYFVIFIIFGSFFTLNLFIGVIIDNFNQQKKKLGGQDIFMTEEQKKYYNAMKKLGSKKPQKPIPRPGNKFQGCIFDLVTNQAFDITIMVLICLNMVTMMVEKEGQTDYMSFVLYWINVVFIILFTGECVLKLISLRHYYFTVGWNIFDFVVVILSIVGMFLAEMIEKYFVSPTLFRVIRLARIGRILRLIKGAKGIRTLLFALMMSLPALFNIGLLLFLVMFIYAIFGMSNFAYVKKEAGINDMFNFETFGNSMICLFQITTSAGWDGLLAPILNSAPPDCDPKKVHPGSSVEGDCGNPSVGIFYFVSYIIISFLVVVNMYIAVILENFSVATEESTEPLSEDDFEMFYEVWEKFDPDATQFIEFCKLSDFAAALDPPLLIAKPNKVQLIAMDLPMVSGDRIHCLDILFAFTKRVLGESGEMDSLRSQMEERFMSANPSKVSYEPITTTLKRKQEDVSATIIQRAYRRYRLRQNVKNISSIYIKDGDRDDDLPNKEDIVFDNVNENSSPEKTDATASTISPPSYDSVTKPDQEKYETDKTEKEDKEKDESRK
Chain of mouse NaV1.7 (Q07699 19-218, further chain): as the sequence (Q07699 19-218) above

| Substance | EC50 (mouse NaV1.7) | mNaV1.7 sustained current, % of control peak (mouse NaV1.7; 3 µM peptide, step –90 to –20 mV, n = 4-5 cells, mean ± SEM, SEM) | EC50 (mouse NaV1.7; EC50 (potency), mNaV1.7, HEK293, hold −90 mV, pulse to −20 mV, I40-ms/Imax, mean ± SEM, SEM) | EC50 (mouse NaV1.7; EC50, 95% CI (profile likelihood), mNaV1.7 (I40ms), Supplementary Fig. 2f / 2i) | hNaV1.7 peak current amplitude, % of control (human NaV1.7) | EC50 (human NaV1.7; EC50 (potency), hNaV1.7, SEM) | hNaV1.7 sustained current (I40-ms), % of control peak (human NaV1.7; SEM) | EC50 (human NaV1.6; SEM) | EC50 (human NaV1.8) | hNaV1.9 I50-ms, % of peak (human NaV1.9; SEM) | EC50 (human NaV1.7; EC50 (potency), hNaV1.7) | EC50 (human NaV1.7; NaV1.7, best-fit EC50) | EC50 (human NaV1.6) | activity at hNaV1.9 (sustained current vs control) (human NaV1.9) |
| --- | --- | --- | --- | --- | --- | --- | --- | --- | --- | --- | --- | --- | --- | --- |
| FLPLLILGSLLMTPPVIQAIHDAQR-NH2 [Pc1a, poneratoxin] | 1160 nM | 8.8 ± 2.0% | 1800 ± 200 nM | 718 to 2680 nM | 57.8 ± 4.9% | 2300 ± 400 nM | 12.2 ± 1.2% | 97 ± 10 nM | > 10000 nM | 58.6 ± 4.4% | – | – | – | – |
| GLPLLALLMTLPFIQHAITN-NH2 [Mri1a] | – | – | – | – | 68.1 ± 10.6% | – | 3.4 ± 0.7% | – | – | – | > 10000 nM | 5600 nM | 3240 nM | inactive |
